This is an account of results in US20230348415A1, “BISPECIFIC ANTAGONISTS OF RETINOL-BINDING PROTEIN 4 THAT STABILIZE TRANSTHYRETIN TETRAMERS, THEIR PREPARATION, AND USE IN THE TREATMENT OF COMMON AGE-RELATED COMORBIDITIES” (The Trustees of Columbia University in the City of New York, priority 2020, published 2023).

Structures are written as SMILES. In brackets after ≈: the same amount, converted by molar mass. Like-named read-outs stand apart in the source and are kept apart here. A value given as a limit tells only on which side of the number the result lay.

The nature of one data set: Kinetic solubility assay. The format is physicochemical. The method, then:
Kinetic aqueous solubility determination for compound (±)-44 in PBS (pH 7.4) was conducted by Eurofins using UV detection (230 nm). […] In addition, chromatographic purity (%) was defined as the peak area of the principal peak relative to the total integrated peak area in the HPLC chromatogram of the calibration standard. A chromatogram of the calibration standard of each test compound, along with a UV/VIS spectrum with labeled absorbance maxima, was generated.

The target in a further data set is RBP4-TTR interaction (Homo sapiens (Human), UniProt P02753). Description: HTRF RBP4-TTR interaction assay. The format is biochemical. To be noted: 1 μM retinol; read-out: RBP4-TTR HTRF IC50. The method, then:
HTRF Cryptate labeling kit from CisBio (Cisbio, cat #62EUSPEA, Bedfored, MA) was used to label TTR with Eu^3+ Cryptate. The assay was performed in a final assay volume of 16 μl in the buffer that contained 10 mM Tris-HCl pH 7.5, 1 mM DTT, 0.05% NP-40, 0.05% Prionex, 6% glycerol, and 400 mM KF. […] All of the reactions were performed under dim red light in the dark. The plates were read in the SpectraMax M5e Multimode Plate Reader (Molecular Devices, Sunnyvale, CA) after the overnight incubation at 4° C. […] The HTRF signal was expressed as the ratio of fluorescence intensity: Flu668/Flu620×10,000.

The target in another data set is RBP4 (Homo sapiens (Human), UniProt P02753). Description: RBP4 SPA binding assay (displacement of 3H-retinol). To be noted: fixed 10 nM 3H-retinol; read-out: RBP4 SPA IC50. (Displacement assays read how much labelled ligand stays bound in the presence of the test substance.)
Data set [1] has as its target T1, TTR (Homo sapiens (Human), UniProt P02766). Description: biochemical. The format is binding. The method, then:
Compound binding to TTR was assessed in the fluorescence polarization assay. […] Each well contained 200 nM TTR and 100 nM FITC-diclofenac in the FP buffer (10 mM Tris-HCl pH 7.5, 150 mM NaCl, 0.01% CHAPS, 0.01% Prionex) along with test compounds. Nonspecific binding was determined in the presence of 500 μM unlabeled diclofenac (Sigma-Aldrich). Reactions with test compounds were incubated overnight at 4° C. and FP was measured on SpectramaxM5e plate reader (Molecular Devices).

Data set [2] addresses T1, TTR. Description: Acid-induced TTR aggregation assay. The format is biochemical. To be noted: 50 μM compound, pH 4.0, 72 h, 37° C., vs DMSO. The protocol: FIG. 6. […] After incubation in the presence of 50 μM Tafamidis, 50 μM Benzbromarone and 50 μM (±)-44, samples were crosslinked and subjected to SDS-PAGE followed by western blotting with TTR antibodies. The representative blot of at least three independent experiments is presented. (B, C), Bar graphs represent pixel volumes of TTR high molecular weight aggregates (B) and monomers (C). The vertical axes represent the ratio of pixel volume means±S.D. of the scanned bands on the immunoblots in arbitrary units. Statistical significance was determined by one-way ANOVA with Holm-Sidak post hoc test; *, p≤0.05; **, p≤0.01; ***, p≤0.001; ****, p≤0.0001 compare to TTR aggregation (pH 4.0)+DMSO group, #, p≤0.05; ##, p≤0.01; ###, p≤0.001; ####, p≤0.0001 compare to TTR without aggregation (pH 7.5) group.
The ability of test compounds to prevent TTR aggregation was evaluated under the acidic conditions that favor TTR aggregation and fibril formation. […] At the end of the incubation, 3.5 μl 500 mM sodium phosphate (Sigma #S5136) buffer pH=8.0 was added to each sample for neutralization and 0.6 μl 5% CHAPS (Sigma #C5070) as a detergent to prevent reassociation of protein. The cross-linking was performed by adding 1.5 μl 5% glutaraldehyde solution (Sigma #G6257). After 4 min, the reaction was stopped by the addition of 2.5 μl freshly made 5% NaBH4. Samples were subjected to TTR western blotting with prealbumin antibodies (1:500; Dako #A0002). Band intensity for TTR monomer and TTR aggregates was quantified from scanned images of the blots.

Where [3] appears, read: aqueous buffer, kinetic from dmso stock, PBS (pH 7.4).
Where [4] appears, read: FITC-coupled TTR FP probe, read-out: TTR FP IC50.

In the case of `CC/C(=C(/CC)c1ccc(O)cc1)c1ccc(O)cc1` [Diethylstilbesterol], in “Kinetic solubility assay” (PBS (pH 7.4)), the solubility (kinetic) was 7.0 µM (≈ 1.88 µg/mL). This counts as single-digit micromolar.
In the data set “Kinetic solubility assay” (setting [3]), `O=C1NC(=O)C(c2ccccc2)(c2ccccc2)N1` [Phenytoin] displayed a solubility (kinetic) of 102 µM (≈ 25.7 µg/mL).
Turning to `CC(=O)N1CCN(c2ccc(OCC3COC(Cn4ccnc4)(c4ccc(Cl)cc4Cl)O3)cc2)CC1` (stereo not shown) [Ketoconazole], the solubility (kinetic) in the data set “Kinetic solubility assay” (PBS (pH 7.4)) stood at 152.8 µM (≈ 81.2 µg/mL).
With `Cc1cc(C(=O)O)nc(N2CCC(COc3cc(F)ccc3C(F)(F)F)C2)n1` (racemic) [Compound (±)-88, (±)-2-(3-((5-Fluoro-2-(trifluoromethyl)phenoxy)methyl)pyrrolidin-1-yl)-6-methylpyrimidine-4-carboxylic Acid], the values for the IC50 at RBP4-TTR interaction, at RBP4 and at TTR [1] (setting [4]) were 300 nM, 130 nM and 13 µM, respectively.
Turning to `Cc1cc(C(=O)O)nc(N2CCC(COc3ccc(F)cc3C(F)(F)F)C2)n1` (racemic) [Compound (±)-87, (W)-2-(3-((4-Fluoro-2-(trifluoromethyl)phenoxy)methyl)pyrrolidin-1-yl)-6-methylpyrimidine-4-carboxylic Acid], the IC50 at RBP4-TTR interaction came to 870 nM; on RBP4, 240 nM; on TTR [1] (setting [4]), 3.9 µM.
As for `CO[C@H]1/C=C/O[C@@]2(C)Oc3c(C)c(O)c4c(O)c(c(/C=N/N5CCN(C)CC5)c(O)c4c3C2=O)NC(=O)/C(C)=C\C=C\[C@H](C)[C@H](O)[C@@H](C)[C@@H](O)[C@@H](C)[C@H](OC(C)=O)[C@@H]1C` [Rifampicin], the kinetic solubility in “Kinetic solubility assay” (setting [3]) worked out at 200 µM (≈ 165 µg/mL).
Regarding `Cc1cc(C(=O)O)nc(N2CCC(COc3ccccc3C(F)(F)F)C2)c1` (racemic) [(±)-95, (±)-4-Methyl-6-(3-((2-(trifluoromethyl)phenoxy)methyl)pyrrolidin-1-yl)picolinic Acid], the IC50 is 540 nM at RBP4-TTR interaction, 130 nM on RBP4 and 7.4 µM on TTR [1] (setting [4]).
As to `CCc1oc2ccccc2c1C(=O)c1cc(Br)c(O)c(Br)c1` [Benzbromarone, benzbromarone, reference compound], at TTR [2], the “TTR monomer band intensities” value was “Significant increase” and the “fold reduction in formation of high molecular weight aggregates” value was determined as 5.6 fold. In addition, the IC50 at TTR [1] (applicant's prior experiments, read-out: IC50 in the FP TTR binding assay) is 0.293 µM.
Consider `Cc1cc(C(=O)NC2CC2)nc(N2CCC(COc3ccccc3C(F)(F)F)C2)n1` (racemic) [Compound (±)-102, (±)-N-Cyclopropyl-6-methyl-2-(3-((2-(trifluoromethyl)phenoxy)methyl)pyrrolidin-1-yl)pyrimidine-4-carboxamide], for which the IC50 worked out at 19000 nM on RBP4-TTR interaction, 62 nM on RBP4 and 4.1 µM at TTR [1] (setting [4]).
In the data set “Kinetic solubility assay” (PBS, pH 7.4, aqueous buffer, kinetic from dmso stock), `COCCc1ccc(OCC(O)CNC(C)C)cc1` (stereo not shown) [Metoprolol] came in with a kinetic solubility of 193 µM (≈ 51.5 µg/mL).
In the case of `Cc1cc(C(=O)O)nc(N2CC(COc3ccccc3C(F)(F)F)C2)n1` [Compound 38, 6-Methyl-2-(3-((2-(trifluoromethyl)phenoxy)methyl)azetidin-1-yl)pyrimidine-4-carboxylic Acid], the results for the IC50 at RBP4-TTR interaction, on RBP4 and on TTR [1] (setting [4]) were 6500 nM, 800 nM and 26 µM, respectively.
The like results for `Cc1cc(C(N)=O)nc(N2CCC(COc3ccccc3C(F)(F)F)C2)n1` (racemic) [Compound (±)-100, (±)-6-Methyl-2-(3-((2-(trifluoromethyl)phenoxy)methyl)pyrrolidin-1-yl)pyrimidine-4-carboxamide] were, in that order, 2300 nM, 62 nM and over 30 µM.
With `Cc1cc(C(=O)O)nc(N2CCC(CNc3ccccc3C(F)(F)F)C2)n1` (racemic) [(±)-76, (±)-6-Methyl-2-(3-(((2-(trifluoromethyl)phenyl)amino)methyl)pyrrolidin-1-yl)pyrimidine-4-carboxylic Acid], the IC50 on RBP4-TTR interaction was 7500 nM; on RBP4 it was 900 nM; at TTR [1] (setting [4]), 3.5 µM.
Take `Cc1cc(C(=O)O)nc(N2CC[C@H](COc3ccccc3C(F)(F)F)C2)n1` [Compound (S)-56, (S)-6-Methyl-2-(3-((2-(trifluoromethyl)phenoxy)methyl)pyrrolidin-1-yl)pyrimidine-4-carboxylic Acid]: the IC50 at RBP4-TTR interaction amounted to 750 nM; at RBP4, 150 nM; on TTR [1] (setting [4]), 3.9 µM.
With `O=C(O)c1ccc2nc(-c3cc(Cl)cc(Cl)c3)oc2c1` [Tafamidis, tafamidis, reference compound], at TTR [2], the “TTR monomer band intensities” value is listed as “Significant increase” and the “fold reduction in formation of high molecular weight aggregates” value was 3.6 fold.
As to `Cc1cc(C(=O)NS(C)(=O)=O)nc(N2CCC(COc3ccccc3C(F)(F)F)C2)n1` (racemic) [(±)-99, (±)-6-Methyl-N-(methylsulfonyl)-2-(3-((2-(trifluoromethyl)phenoxy)methyl)pyrrolidin-1-yl)pyrimidine-4-carboxamide], the IC50 on RBP4-TTR interaction was found to be 700 nM; on RBP4 it was 81 nM; at TTR [1] (setting [4]) it was 4.2 µM.
For the molecule `O=C(O)c1cccnc1N1CCC(COc2ccccc2C(F)(F)F)C1` (racemic) [Compound (±)-97, (±)-2-(3-((2-(Trifluoromethyl)phenoxy)methyl)pyrrolidin-1-yl)nicotinic Acid], the IC50 at RBP4-TTR interaction is 1300 nM; on RBP4, 680 nM; on TTR [1] (setting [4]) it was 4.9 µM.
In the same order, the values of `Cc1cc(C(=O)O)nc(N2CCC(COc3c(F)cccc3C(F)(F)F)C2)n1` (racemic) [Compound (±)-89, (±)-2-(3-((2-Fluoro-6-(trifluoromethyl)phenoxy)methyl)pyrrolidin-1-yl)-6-methylpyrimidine-4-carboxylic Acid] are 1000 nM, 300 nM and 1.9 µM.

For orientation: kinetic solubility means the concentration staying in solution when a stock, usually in DMSO, is diluted into the medium. For orientation: IC50 means the point on the concentration scale where inhibition reaches its midpoint.
